Assay results taken from patent US20260317304A1, “TEAD INHIBITORS AND METHODS OF USE” (Sporos BioDiscovery, Inc., priority 2022, published 2026).

Test system: NCI-H226 lung tumor model
Experiment: Mouse xenograft NCI-H226 tumors
Assay type: in vivo, NOD SCID mice
From the text: This study evaluated the in vivo anti-tumor efficacy of test compounds in NOD SCID mice for treatment of NCI-H226 lung tumor model.
• Species: Mus Musculus • Strain: NOD SCID • Age: 6-8 weeks • Sex: female • Body weight: 18-22 g • Number of animals inoculated with tumor: 69 mice • Number of animals enrolled in the treatment: 40 mice • Number of unenrolled animals: 29 mice • Animal supplier: Beijing Vital River Biotechnology Experimental Animal Co. Ltd Certification number: 20221110Abzz0619000681
The NCI-H226 tumor cells were maintained in vitro in RPMI 1640 medium supplemented with 10% Fetal bovine serum and 1% Antibiotic-Antimycotic at 37° C. in an atmosphere of 5% CO2 in air. The tumor cells were routinely subcultured twice weekly by trypsin-EDTA. The cells growing in an exponential growth phase were harvested and counted for tumor inoculation.
Each mouse was inoculated subcutaneously at the right flank with NCI-H226 tumor cells (10×10^6+50% matrigel/0.2 mL) for tumor development. Animals were marked with earrings with unique 6 significant figure number for identification. The treatments were started when the average tumor volume reached an average size of 154 mm^3.
The major endpoint was to determine if the tumor growth could be delayed or mice could be cured. Tumor volume was measured twice a week in two dimensions using a caliper, and the volume was expressed in mm^3 using the formula: V=0.5 a×b^2 where a and b are the long and short diameters of the tumor, respectively. The tumor size was then used for calculations of T/C value. The TGI value (in percent) or the T/C value (in percent) is an indication of antitumor effectiveness; T and C are the mean tumor volumes or tumor weights of the treated and control groups, respectively, on a given day.
TGI was calculated for each group using the formula: TGI (%)=[1−(Ti−T0)/(Vi−V0)]×100; Ti is the average tumor volume of a treatment group on a given day, T0 is the average tumor volume of the treatment group on the day of treatment start, Vi is the average tumor volume of the vehicle control group on the same day with T1, and V0 is the average tumor volume of the vehicle group on the day of treatment start.
Relative T/C (%)=TRTV/CRTV×100 (RTV (%)=Vt/V0×100, Vt is the average tumor volume on a given day, V0 is the average tumor volume on the first day of treatment. TRTV is the RTV of a treatment group, and the CRTV is the RTV of the vehicle control group.)
Tumor weight was measured at the study termination. The Tweight/Cweight value (in percent) was calculated according to the formula: Tweight/Cweight (%)=TWtreatment/TWvehicle×100, where T and C are the mean tumor weights of the treatment and control groups respectively
Summary statistics, including mean and the standard error of the mean (SEM), were provided for the tumor volume of each group at each time point.
Statistical analysis of difference in tumor volume among the groups was conducted on the data obtained at the end of the study.
One-tailed T test was performed to compare tumor volumes between two groups. All data were analyzed using GraphPad Prism 6.0. p<0.05 is considered to be statistically significant.
The antitumor effectiveness of the study was analyzed on PG-D28 when vehicle group reached 472 mm^3.

`Cn1cnc(-c2cc([C@@]3(C)CCNC3=O)ccc2Nc2ccc(C(F)(F)F)cc2)c1` (single isomer, unassigned) [Compound 5, 3-methyl-3-(3-(1-methyl-1H-imidazol-4-yl)-4-((4-(trifluoromethyl)phenyl)amino)phenyl)pyrrolidin-2-one] was tested, and the “Tumor size (mean ± SEM)” value (day 0, 5 mg/kg, PO BID) was 154 ± 13 mm^3, the “Tumor size (mean ± SEM)” value (day 0, 15 mg/kg, PO BID) was 154 ± 15 mm^3 and the “Tumor size (mean ± SEM)” value (day 0, 15 mg/kg, PO QD) was 154 ± 15 mm^3. For the same compound, the “Tumor size (mean ± SEM)” value (day 4, 5 mg/kg, PO BID) was 140 ± 10 mm^3, the “Tumor size (mean ± SEM)” value (day 4, 15 mg/kg, PO BID) was 127 ± 14 mm^3 and the “Tumor size (mean ± SEM)” value (day 4, 15 mg/kg, PO QD) was 153 ± 11 mm^3. The “Tumor size (mean ± SEM)” value (day 7, 5 mg/kg, PO BID) was 129 ± 5 mm^3, the “Tumor size (mean ± SEM)” value (day 7, 15 mg/kg, PO BID) was 115 ± 12 mm^3 and the “Tumor size (mean ± SEM)” value (day 7, 15 mg/kg, PO QD) was 149 ± 11 mm^3. The “Tumor size (mean ± SEM)” value (day 10, 5 mg/kg, PO BID) was 124 ± 6 mm^3, the “Tumor size (mean ± SEM)” value (day 10, 15 mg/kg, PO BID) was 110 ± 10 mm^3 and the “Tumor size (mean ± SEM)” value (day 10, 15 mg/kg, PO QD) was 148 ± 12 mm^3. For the same compound, the “Tumor size (mean ± SEM)” value (day 13, 5 mg/kg, PO BID) was 82 ± 8 mm^3, the “Tumor size (mean ± SEM)” value (day 13, 15 mg/kg, PO BID) was 84 ± 8 mm^3 and the “Tumor size (mean ± SEM)” value (day 13, 15 mg/kg, PO QD) was 116 ± 26 mm^3. For the same compound, the “Tumor size (mean ± SEM)” value (day 17, 5 mg/kg, PO BID) was 77 ± 7 mm^3, the “Tumor size (mean ± SEM)” value (day 17, 15 mg/kg, PO BID) was 62 ± 6 mm^3 and the “Tumor size (mean ± SEM)” value (day 17, 15 mg/kg, PO QD) was 94 ± 15 mm^3. The “Tumor size (mean ± SEM)” value (day 20, 5 mg/kg, PO BID) was 73 ± 6 mm^3, the “Tumor size (mean ± SEM)” value (day 20, 15 mg/kg, PO BID) was 63 ± 7 mm^3 and the “Tumor size (mean ± SEM)” value (day 20, 15 mg/kg, PO QD) was 95 ± 16 mm^3. For the same compound, the “Tumor size (mean ± SEM)” value (day 24, 5 mg/kg, PO BID) was 55 ± 4 mm^3, the “Tumor size (mean ± SEM)” value (day 24, 15 mg/kg, PO BID) was 49 ± 4 mm^3 and the “Tumor size (mean ± SEM)” value (day 24, 15 mg/kg, PO QD) was 85 ± 8 mm^3. For the same compound, the T/C (day 28, 5 mg/kg, PO BID) was 11.2%, the TGI (day 28, 5 mg/kg, PO BID) was 131.3% and the “Tumor size (mean ± SEM)” value (day 28, 5 mg/kg, PO BID) was 53 ± 5 mm^3. The “Tumor Volume (mean ± SEM)” value (day 28, 5 mg/kg, PO BID (Table 20)) was 53 ± 5 mm^3, the T/C (day 28, 15 mg/kg, PO BID) was 9.0% and the TGI (day 28, 15 mg/kg, PO BID) was 134.2%. The “Tumor size (mean ± SEM)” value (day 28, 15 mg/kg, PO BID) was 43 ± 6 mm^3, the “Tumor Volume (mean ± SEM)” value (day 28, 15 mg/kg, PO BID (Table 20)) was 43 ± 6 mm^3 and the T/C (day 28, 15 mg/kg, PO QD) was 17.0%. For the same compound, the TGI (day 28, 15 mg/kg, PO QD) was 122.3%, the “Tumor size (mean ± SEM)” value (day 28, 15 mg/kg, PO QD) was 82 ± 12 mm^3 and the “Tumor Volume (mean ± SEM)” value (day 28, 15 mg/kg, PO QD (Table 20)) was 82 ± 12 mm^3.
